# Results from patent US8637550B2, “Heteroaryl diamide compounds useful as MMP-13 inhibitors” (Boehringer Ingelheim International GmbH, priority 2008, dated 2014).
# Target: MMP-13 (Homo sapiens, UniProt P45452)
# Assay: EnzoLyte 520 Generic MMP Assay Kit, 5-FAM/QXL520 FRET peptide substrate
# Format: biochemical
# Excerpt: The EnzoLyte™ 520 Generic MMP Assay Kit (AnaSpec Inc.) can detect the activity of several MMPs including MMP-1, 2, 3, 7, 8, 9, 13, and 14. This kit uses a 5-FAM/QXL™520 fluorescence resonance energy transfer (FRET) peptide as an MMP substrate.
row,SMILES,IC50 [nM]
1,CNC(=O)[C@@H](NC(=O)c1ccc(-c2cccc(CNC(=O)c3nccn3C)c2)o1)C1CCCCC1 [N-[3-(5-{[(1S)-1-cyclohexyl-2-(methylamino)-2-oxoethyl]carbamoyl}furan-2-yl)benzyl]-1-methyl-1H-imidazole-2-carboxamide],313
2,CNC(=O)[C@@H](NC(=O)c1ccc(-c2ccc(-c3ccc4cc[nH]c4c3)cn2)o1)C(C)C [5-[5-(1H-Indol-6-yl)-pyridin-2-yl]-furan-2-carboxylic acid ((S)-2-methyl-1-methylcarbamoyl-propyl)-amide],91
3,CNC(=O)[C@@H](NC(=O)c1ccc(-c2cccc(CNC(=O)c3cccc(Cl)n3)c2)o1)C(C)C [6-Chloro-N-[3-(5-{[(1S)-2-methyl-1-(methylcarbamoyl)propyl]carbamoyl}-2-furyl)benzyl]pyridine-2-carboxamide],2
4,CNC(=O)[C@@H](NC(=O)c1ccc(-c2cccc(CNC(=O)c3cccc(F)n3)c2)o1)C(C)C [6-Fluoro-N-[3-(5-{[(1S)-2-methyl-1-(methylcarbamoyl)propyl]carbamoyl}-2-furyl)benzyl]pyridine-2-carboxamide],2
5,CNC(=O)[C@@H](NC(=O)c1ccc(-c2cccc(CNC(=O)c3cccc(C)n3)c2)o1)C1CCCCC1 [N-[3-(5-{[(1S)-1-cyclohcxyl-2-(methylamino)-2-oxoethyl]carbamoyl}furan-2-yl)benzyl]-6-methylpyridine-2-carboxamide],4
6,"CNC(=O)[C@@H](NC(=O)c1ccc(-c2ccc(OCc3cc(C)n(C)n3)cn2)o1)C1CCCCC1 [N-[(1S)-1-cyclohexyl-2-(methylamino)-2-oxoethyl]-5-{5-[(1,5-dimethyl-1H-pyrazol-3-yl)methoxy]pyridin-2-yl}furan-2-carboxamide]",4
7,"CNC(=O)[C@@H](NC(=O)c1ccc(-c2ccc(-c3cc(F)cc(F)c3)cn2)o1)C(C)C [5-[5-(3,5-Difluoro-phenyl)-pyridin-2-yl]-furan-2-carboxylic acid ((S)-2-methyl-1-methylcarbamoyl-propyl)-amide]",370
8,CNC(=O)[C@@H](NC(=O)c1ccc(-c2cccc(CN)c2)o1)C1CCOCC1 [5-[3-(Aminomethyl)phenyl]-N-[(1S)-2-(methylamino)-2-oxo-1-(tetrahydro-2H-pyran-4-yl)ethyl]-2-furamide],415
9,COC[C@H](C)NC(=O)[C@@H](NC(=O)c1ccc(-c2ccc(C#N)cc2)o1)C1CCCCC1 [5-(4-cyanophenyl)-N-[(1S)-1-cyclohexyl-2-{[(2S)-1-methoxypropan-2-yl]amino}-2-oxoethyl]furan-2-carboxamide],195
10,CNC(=O)[C@@H](NC(=O)c1ccc(-c2cccc(CNC(=O)c3ccc(N(C)C)cc3)c2)o1)C(C)C [5-{3-[(4-Dimethylamino-benzoylamino)-methyl]-phenyl}-furan-2-carboxylic acid ((S)-2-methyl-1-methylcarbamoyl-propyl)-amide],110
11,CNC(=O)[C@@H](NC(=O)c1ccc(-c2cccc(CNC(=O)[C@@H]3CCCN3C)c2)o1)C(C)C [1-methyl-N-[3-(5-{[(1S)-2-methyl-1-(methylcarbamoyl)propyl]carbamoyl}-2-furyl)benzyl]-L-prolinamide],380
12,CNC(=O)[C@@H](NC(=O)c1ccc(-c2cccc(CNC(=O)c3ccnc(C(F)(F)F)n3)c2)o1)C1CCCCC1 [N-[3-(5-{[(1S)-1-cyclohexyl-2-(methylamino)-2-oxoethyl]carbamoyl}furan-2-yl)benzyl]-2-(trifluoromethyl)pyrimidine-4-carboxamide],7
13,CNC(=O)[C@@H](NC(=O)c1ccc(-c2cccc(CNC(=O)c3cc(C(F)(F)F)n(C)n3)c2)o1)C(C)C [1-Methyl-5-trifluoromethyl-1H-pyrazole-3-carboxylic acid 3-[5-((S)-2-methyl-1-methylcarbamoyl-propylcarbamoyl)-furan-2-yl]-benzylamide],39
14,CNC(=O)[C@@H](NC(=O)c1ccc(-c2ccc(Cl)cc2)o1)C1CCNCC1 [5-(4-Chlorophenyl)-N-[(1S)-2-(methylamino)-2-oxo-1-(piperidin-4-yl)ethyl]furan-2-carboxamide],430
